In the assay the target is human NAMPT (Homo sapiens (Human), UniProt P43490). In words: NMN fluorescence biochemical assay (human recombinant NAMPT enzyme assay). In a few lines:
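NMN formed was detected by fluorescence (Ex/Em 355/460 nm) after acetophenone, KOH and formic acid derivatization. The cell-free reaction ran 60 min at ambient temperature with 6 nM human NAMPT, 150 μM nicotinamide, 20 μM PRPP, 2.5 mM ATP, pH 7.2 HEPES, and compound dose responses.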

human NAMPT, sequence (P43490 whole entry): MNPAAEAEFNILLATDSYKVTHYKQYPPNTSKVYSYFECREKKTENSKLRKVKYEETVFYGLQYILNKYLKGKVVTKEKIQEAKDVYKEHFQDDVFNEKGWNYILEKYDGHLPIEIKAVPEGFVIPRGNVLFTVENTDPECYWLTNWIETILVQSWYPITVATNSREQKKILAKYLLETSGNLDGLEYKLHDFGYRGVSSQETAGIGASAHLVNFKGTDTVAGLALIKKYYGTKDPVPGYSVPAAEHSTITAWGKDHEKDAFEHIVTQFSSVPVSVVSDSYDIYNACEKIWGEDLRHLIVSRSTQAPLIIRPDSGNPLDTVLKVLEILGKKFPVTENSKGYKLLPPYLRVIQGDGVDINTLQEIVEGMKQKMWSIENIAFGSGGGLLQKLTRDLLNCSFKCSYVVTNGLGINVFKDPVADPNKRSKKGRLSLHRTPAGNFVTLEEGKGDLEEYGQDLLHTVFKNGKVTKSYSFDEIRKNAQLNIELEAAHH

Regarding `CC(C)C(=O)N1CC2CCC(C1)C2Cc1ccc(NC(=O)OCc2cnco2)cc1` (stereo not shown) [Compound 423, oxazol-5-ylmethyl (4-((3-isobutyryl-3-azabicyclo[3.2.1]octan-8-yl)methyl)phenyl)carbamate], the “AC1.4 Human” value worked out at 0.18 µM and the EC50 came out at 15.4 µM.
For `CC(=O)N1CC2CCC(C1)C2Cc1ccc(NC(=O)OCc2cnco2)cc1` (stereo not shown) [Compound 424, oxazol-5-ylmethyl (4-((3-acetyl-3-azabicyclo[3.2.1]octan-8-yl)methyl)phenyl)carbamate] the same measures were 0.04 µM and 1.13 µM.
For `O=C(Nc1ccc(CC2C3CCC2CN(C2COC2)C3)cc1)OCc1cnco1` (stereo not shown) [Compound 425, oxazol-5-ylmethyl (4-((3-(oxetan-3-yl)-3-azabicyclo[3.2.1]octan-8-yl)methyl)phenyl)carbamate] the same measures were 0.57 µM and 52 µM.
For `O=C(Nc1ccc(CC2C3CCC2CNC3)cc1)OCc1cnco1` (stereo not shown) [Compound 426, oxazol-5-ylmethyl (4-((3-azabicyclo[3.2.1]octan-8-yl)methyl)phenyl)carbamate] the same measures were 1.62 µM and 32.4 µM.
With `CCS(=O)(=O)N1CCC(c2ccc(NC(=O)OCc3cnco3)cc2)CC1` [Compound 427, oxazol-5-ylmethyl (4-(1-(ethylsulfonyl)piperidin-4-yl)phenyl)carbamate], the “AC1.4 Human” value was 0.16 µM and the EC50 worked out at 2.64 µM.
The matching figures for `O=C(Nc1ccc(C2CCN(S(=O)(=O)N3CCC3)CC2)cc1)OCc1cnco1` [Compound 428, oxazol-5-ylmethyl (4-(1-(azetidin-1-ylsulfonyl)piperidin-4-yl)phenyl)carbamate]: 0.07 µM and 2.94 µM.
For `O=C(Nc1ccc(C2CCN(C(=O)N3CCC3)CC2)cc1)OCc1cnco1` [Compound 429, oxazol-5-ylmethyl (4-(1-(azetidine-1-carbonyl)piperidin-4-yl)phenyl)carbamate], the “AC1.4 Human” value worked out at 0.19 µM and the concentration giving a half-maximal response (EC50) worked out at 41.6 µM.
For `CCC(=O)N1CCC(c2ccc(NC(=O)OCc3cnco3)cc2)CC1` [Compound 430, oxazol-5-ylmethyl (4-(1-propionylpiperidin-4-yl)phenyl)carbamate] the same measures were 0.11 µM and 19.8 µM.
For `O=C(Nc1ccc(C2CCN(C(=O)C3CC3)CC2)cc1)OCc1cnco1` [Compound 431, oxazol-5-ylmethyl (4-(1-(cyclopropanecarbonyl)piperidin-4-yl)phenyl)carbamate], the “AC1.4 Human” value was 0.17 µM and the half-maximal effective concentration (EC50) came out at 27.5 µM.
The matching figures for `CN(C)S(=O)(=O)N1CCC(c2ccc(NC(=O)OCc3cnco3)cc2)CC1` [Compound 432, oxazol-5-ylmethyl (4-(1-(N,N-dimethylsulfamoyl)piperidin-4-yl)phenyl)carbamate]: 0.07 µM and 4.73 µM.
The matching figures for `CN(C)S(=O)(=O)N1CC2CC(C1)C2Cc1ccc(NC(=O)OCc2cnco2)cc1` (stereo not shown) [Compound 433, oxazol-5-ylmethyl (4-((3-(N,N-dimethylsulfamoyl)-3-azabicyclo[3.1.1]heptan-6-yl)methyl)phenyl)carbamate]: 0.21 µM and 7.43 µM.
For `CS(=O)(=O)N1CC2CC(C1)C2Cc1ccc(NC(=O)OCc2cnco2)cc1` (stereo not shown) [Compound 434, oxazol-5-ylmethyl (4-((3-(methylsulfonyl)-3-azabicyclo[3.1.1]heptan-6-yl)methyl)phenyl)carbamate] the same measures were 0.06 µM and 2.11 µM.
As to `COC(=O)N1CC2CC(C1)C2Cc1ccc(NC(=O)OCc2cnco2)cc1` (stereo not shown) [Compound 435, methyl 6-(4-(((oxazol-5-ylmethoxy)carbonyl)amino)benzyl)-3-azabicyclo[3.1.1]heptane-3-carboxylate], the “AC1.4 Human” value was determined as 0.08 µM and the 50% effective concentration (EC50) was found to be 7.52 µM.
The matching figures for `CN(C)C(=O)N1CC2CC(C1)C2Cc1ccc(NC(=O)OCc2cnco2)cc1` (stereo not shown) [Compound 436, oxazol-5-ylmethyl (4-((3-(dimethylcarbamoyl)-3-azabicyclo[3.1.1]heptan-6-yl)methyl)phenyl)carbamate]: 0.08 µM and 6.04 µM.
For `CC(C)C(=O)N1CC2CC(C1)C2Cc1ccc(NC(=O)OCc2cnco2)cc1` (stereo not shown) [Compound 437, oxazol-5-ylmethyl (4-((3-isobutyryl-3-azabicyclo[3.1.1]heptan-6-yl)methyl)phenyl)carbamate] the same measures were 0.27 µM and 9.67 µM.
For `CC(=O)N1CC2CC(C1)C2Cc1ccc(NC(=O)OCc2cnco2)cc1` (stereo not shown) [Compound 438, oxazol-5-ylmethyl (4-((3-acetyl-3-azabicyclo[3.1.1]heptan-6-yl)methyl)phenyl)carbamate] the same measures were 0.04 µM and 2.7 µM.
With `O=C(Nc1ccc(CC2C3CC2CN(C2COC2)C3)cc1)OCc1cnco1` (stereo not shown) [Compound 439, oxazol-5-ylmethyl (4-((3-(oxetan-3-yl)-3-azabicyclo[3.1.1]heptan-6-yl)methyl)phenyl)carbamate], the “AC1.4 Human” value turned out to be 1.47 µM and the EC50 was 25.6 µM.
The matching figures for `CN(C)S(=O)(=O)N1CCC(Cc2ccc(NC(=O)OCc3cnco3)cc2)CC12CC2` (stereo not shown) [Compound 440, oxazol-5-ylmethyl (4-((4-(N,N-dimethylsulfamoyl)-4-azaspiro[2.5]octan-7-yl)methyl)phenyl)carbamate]: 0.21 µM and 3.53 µM.
The matching figures for `O=C(Nc1ccc(CC2CCN(C3COC3)C3(CC3)C2)cc1)OCc1cnco1` (stereo not shown) [Compound 441, oxazol-5-ylmethyl (4-((4-(oxetan-3-yl)-4-azaspiro[2.5]octan-7-yl)methyl)phenyl)carbamate]: 0.17 µM and 10.7 µM.
The matching figures for `CN(C)C(=O)N1CCC(Cc2ccc(NC(=O)OCc3cnco3)cc2)CC12CC2` (stereo not shown) [Compound 442, oxazol-5-ylmethyl (4-((4-(dimethylcarbamoyl)-4-azaspiro[2.5]octan-7-yl)methyl)phenyl)carbamate]: 0.12 µM and 3.78 µM.
As to `COC(=O)N1CCC(Cc2ccc(NC(=O)OCc3cnco3)cc2)CC12CC2` (stereo not shown) [Compound 443, methyl 7-(4-(((oxazol-5-ylmethoxy)carbonyl)amino)benzyl)-4-azaspiro[2.5]octane-4-carboxylate], the “AC1.4 Human” value came to 0.22 µM and the EC50 stood at 6.45 µM.
The matching figures for `CC(=O)N1CCC(Cc2ccc(NC(=O)OCc3cnco3)cc2)CC12CC2` (stereo not shown) [Compound 444, oxazol-5-ylmethyl (4-((4-acetyl-4-azaspiro[2.5]octan-7-yl)methyl)phenyl)carbamate]: 0.13 µM and 6.31 µM.
Take `CC(=O)N1CC2CCC(C1)C2c1ccc(NC(=O)OCc2cnco2)cc1` (stereo not shown) [Compound 445, oxazol-5-ylmethyl (4-(3-acetyl-3-azabicyclo[3.2.1]octan-8-yl)phenyl)carbamate]: the “AC1.4 Human” value was 0.56 µM and the EC50 was determined as 33.5 µM.
For `CC(C)OC(=O)N1CCC(Cc2ccc(NC(=O)OCc3cnco3)cc2)CC1` [Compound 446, isopropyl 4-(4-(((oxazol-5-ylmethoxy)carbonyl)amino)benzyl)piperidine-1-carboxylate] the same measures were 0.73 µM and 19.3 µM.
The matching figures for `CN(C)S(=O)(=O)N1CCC(Cc2ccc(NC(=O)OCc3cnco3)cc2F)CC1` [Compound 447, oxazol-5-ylmethyl (4-((1-(N,N-dimethylsulfamoyl)piperidin-4-yl)methyl)-3-fluorophenyl)carbamate]: 0.08 µM and 2.31 µM.
The matching figures for `CS(=O)(=O)N1CCC(Cc2ccc(NC(=O)OCc3cnco3)cc2F)CC1` [Compound 448, oxazol-5-ylmethyl (3-fluoro-4-((1-(methylsulfonyl)piperidin-4-yl)methyl)phenyl)carbamate]: 0.13 µM and 4.5 µM.
With `COC(=O)N1CCC(Cc2ccc(NC(=O)OCc3cnco3)cc2F)CC1` [Compound 450, methyl 4-(2-fluoro-4-(((oxazol-5-ylmethoxy)carbonyl)amino)benzyl)piperidine-1-carboxylate], the “AC1.4 Human” value is 0.13 µM and the concentration for a half-maximal effect (EC50) was found to be 4.97 µM.
On to `CC(=O)N1CCC(Cc2ccc(NC(=O)OCc3cnco3)cc2F)CC1` [Compound 451, oxazol-5-ylmethyl (4-((1-acetylpiperidin-4-yl)methyl)-3-fluorophenyl)carbamate], for which the “AC1.4 Human” value worked out at 0.16 µM and the EC50 was found to be 7.79 µM.
The matching figures for `O=C(Nc1ccc(CC2CCN(C3COC3)CC2)c(F)c1)OCc1cnco1` [Compound 452, oxazol-5-ylmethyl (3-fluoro-4-((1-(oxetan-3-yl)piperidin-4-yl)methyl)phenyl)carbamate]: 0.18 µM and 13 µM.
On to `CS(=O)(=O)N1CCC(Cc2ccc(NC(=O)OCc3cnco3)cc2)C2CC21` (stereo not shown) [Compound 453, oxazol-5-ylmethyl (4-((2-(methylsulfonyl)-2-azabicyclo[4.1.0]heptan-5-yl)methyl)phenyl)carbamate], for which the “AC1.4 Human” value is 0.35 µM and the EC50 is 44 µM.
Regarding `CN(C)C(=O)N1CCC(Cc2ccc(NC(=O)OCc3cnco3)cc2)C2CC21` (stereo not shown) [Compound 454, oxazol-5-ylmethyl (4-((2-(dimethylcarbamoyl)-2-azabicyclo[4.1.0]heptan-5-yl)methyl)phenyl)carbamate], the “AC1.4 Human” value amounted to 0.14 µM and the concentration for a half-maximal effect (EC50) came out at 16.1 µM.
Regarding `O=C(Nc1ccc(CC2CCN(C3COC3)C3CC23)cc1)OCc1cnco1` (stereo not shown) [Compound 455, oxazol-5-ylmethyl (4-((2-(oxetan-3-yl)-2-azabicyclo[4.1.0]heptan-5-yl)methyl)phenyl)carbamate], the “AC1.4 Human” value stood at 0.84 µM and the EC50 stood at 32.4 µM.
